Here are results for six compounds from paper PMC12649408 (Antibiotics, 2025).

Like-named read-outs stand apart in the source and are kept apart here. Bridge positions count the residues as written; N and C are the ends. Ends that are not written are not given here. Where only a bound is given, the exact number is not on record here.

Usually MIC stands for the lowest concentration that inhibits growth of the organism. Usually IC50 stands for the point on the concentration scale where inhibition reaches its midpoint.

One data set relates to Caco-2 cell monolayer. Nature of the data set: Cytotoxicity assay, resazurin method. The data set is classed as cell-based, human. The conditions noted are these: for СС50 Caco-2: Table S2, monolayer, 24 h in RPMI-1640, resazurin, twice in duplicate. Here is the method:
(§1) Cytotoxic activity of the peptides was investigated against human peripheral blood mononuclear cells (PBMCs) and the Caco-2 epithelial monolayer as an in vitro model of the intestinal barrier using a RPMI-1640 medium and resazurin-test.
(§2) In brief, Caco-2 cells in a monolayer or 2 × 10^6 PBMCs per well were incubated with serial dilutions of the peptides for 24 h in RPMI-1640. Resazurin (Sigma, St. Louis, MO, USA) was then added at a final concentration of 70 µM and the plates were incubated for 20 h. Untreated cells (F0) and cells treated by 0.1% Triton X-100 (Sigma-Aldrich) (Fcontrol) were used as negative and positive controls, respectively. Cell viability was assessed by resorufin fluorescence using a 535/595 nm filter and a PlateReader AF2200 as ((Fsample − F0)/(Fcontrol − F0)) × 100%. […] The experiment was carried out twice in duplicate.
A general note: Alamar Blue is a resazurin reagent that responds to reducing activity.

The next data set has as its system PBMCs. Nature of the data set: Cytotoxicity assay, resazurin method. The class given is cell-based, human. The conditions noted are these: Table S2; 24 h in RPMI-1640, resazurin, twice in duplicate. Here is the method:
as §1, §2

Experiment in data set [1]: not given
The source holds these as a separate data set.

Experiment in data set [2]: not given
The source holds these as a separate data set.

Experiment in data set [3]: not given
The source holds these as a separate data set.

Experiment in data set [4]: not given
The source holds these as a separate data set.

Experiment in data set [5]: not given
This is another data set of the same source.

Experiment in data set [6]: not given
The source holds these as a separate data set.

Experiment in data set [7]: not given
The source holds these as a separate data set.

Experiment in data set [8]: not given
The source holds these as a separate data set.

Experiment in data set [9]: not given
The source holds these as a separate data set.

Experiment in data set [10]: not given
The source holds these as a separate data set.

Experiment in data set [11]: not given
The source holds these as a separate data set.

Data set [12] has as its system human red blood cells (hRBCs). The conditions noted are these: Table S2; 4% v/v hRBCs in PBS, 2 h, 37 °C. As for the experimental part:
All procedures were approved by the Ethics Committee of the Institute of Experimental Medicine (protocol 1/20 of 2/27/2020) and comply with the ethical principles of the Declaration of Helsinki. […] Samples were centrifuged to sediment intact red blood cells. Supernatants containing released hemoglobin were transferred to 96-well microplates, and absorbance was measured at 405 nm. Untreated hRBCs in PBS (A0) and hRBC treated with 0.1% Triton X-100 (Sigma-Aldrich) (Acontrol) were used as negative and positive controls, respectively. The percentage of hemolysis was calculated as [(Asample − A0)/(Acontrol − A0)] × 100%. The experiment was carried out twice in duplicate.

Data set [13] deals with C. albicans clinical isolate 9.1. The note with it: Table 2; resistant clinical isolate 9.1; Sabouraud broth, 30 °C, 24 h, 100% inhibition. As for the experimental part: (§3) Using the two-fold serial dilution method, antifungal activities of the obtained analogues were tested against different C. albicans strains: susceptible collection strain ATCC 18804; resistant to azoles and anidulafungin collection strain ATCC 10231 and clinical isolates 9.1 and 8.2 [7].
(§4) The antifungal assay was performed by the microdilution method using 96-well microplates and Sabouraud broth as described earlier. […] After that, the plates were incubated at 30 °C for 24 h. A control without antifungals was also tested. Fungal growth was evaluated by measuring absorbance at 630 nm. […] All the experiments were performed twice in triplicate. Microscopic analysis of fungal growth was performed using inverted microscopy (Olympus, Tokyo, Japan). A 0.1% BSA solution was used for the blocking of each microplates well to prevent the adsorption of antifungal agents.

Data set [14] concerns C. albicans clinical isolate 8.2. The note with it: Table 2; resistant clinical isolate 8.2; Sabouraud broth, 30 °C, 24 h, 100% inhibition. As for the experimental part: as §3, §4
The subject of the next data set is C. albicans ATCC 10231. The note with it: Table 2; strain resistant to azoles and anidulafungin; Sabouraud broth, 30 °C, 24 h, 100% inhibition. As for the experimental part: as §3, §4
A further data set concerns C. albicans ATCC 18804. The note with it: Sabouraud broth. Here is the method:
as §3, §4

Where [15] appears, read: Caco-2 monolayer, RPMI-1640, resazurin-test.

`CC[C@H](C)[C@H](NC(=O)CN)C(=O)NCC(=O)N[C@@H](C)C(=O)N[C@H](C(=O)N[C@@H](CC(C)C)C(=O)N[C@@H](CCCCN)C(=O)N[C@H](C(=O)N[C@@H](CC(C)C)C(=O)N[C@H](C(=O)N[C@H](C(=O)NCC(=O)N[C@@H](CC(C)C)C(=O)N1CCC[C@H]1C(=O)N[C@@H](C)C(=O)N[C@@H](CC(C)C)C(=O)N[C@H](C(=O)N[C@@H](CO)C(=O)N[C@@H](Cc1c[nH]c2ccccc12)C(=O)N[C@H](C(=O)N[C@@H](CCCCN)C(=O)N[C@@H](CCCNC(=N)N)C(=O)N[C@@H](CCCCN)C(=O)N[C@@H](CCCNC(=N)N)C(=O)N[C@@H](CCC(N)=O)C(=O)N[C@@H](CCC(N)=O)C(N)=O)[C@@H](C)CC)[C@@H](C)CC)[C@@H](C)O)[C@@H](C)O)C(C)C)C(C)C` [melittin]: in the data set on Caco-2 cell monolayer (setting [15]), the “concentration at which cell viability was 0% (100% cell death)” value is given as approximately 12.5 µM and the “concentration at which cell viability was 50%” value is approximately 2.5 µM. In addition, the “СС50 Caco-2” value in the data set on Caco-2 cell monolayer turned out to be 2.35 µM. Moreover, the “СС50 PBMCs” value in the data set with PBMCs is listed as 6.10 µM.
Compound “H-RECKTESNTFPGICITKPPCRKACISEKFTDGHCSKILRRCLCRRPC-OH (disulfide 3-47, 14-34, 20-41, 24-43)” showed a β-Turn, SDS micelles of 22.7%. For the same compound, in data set [1], the β-Sheet, aqueous solution stood at 29.8%. Further, the β-Sheet, DPC micelles in data set [2] is 30.4%. For the same compound, in [3], the β-Turn, aqueous solution worked out at 23.7%. Also, the β-Sheet, SDS micelles in data set [4] was determined as 28.5%. In data set [5], this compound displayed a β-Turn, DPC micelles of 22.6%. The Random, DPC micelles in data set [6] worked out at 31.1%. In addition, the α-Helix, SDS micelles in data set [7] came out at 16.2%. Moreover, the α-Helix, DPC micelles in data set [8] was found to be 15.8%. Moreover, the α-Helix, aqueous solution in data set [9] was determined as 7.6%. In addition, in data set [10], the Random, aqueous solution was 38.9%. The compound also gave a Random, SDS micelles in [11] of 32.5%.
The compound “H-RECKTESNTFPGICITKPPCRKACISEKFTDGHCSKIRRRCLCRRPC-OH (disulfide 3-47, 14-34, 20-41, 24-43)” came in with a β-Turn, SDS micelles of 21.7%. Moreover, the β-Sheet, aqueous solution in data set [1] amounted to 30.7%. In [2], this compound registered a β-Sheet, DPC micelles of 31.2%. The compound also returned a β-Turn, aqueous solution in data set [3] of 22.7%. For the same compound, the β-Sheet, SDS micelles in data set [4] came out at 30.8%. Besides, the β-Turn, DPC micelles in [5] was 21.7%. Further, in data set [6], the Random, DPC micelles worked out at 32.9%. In data set [7], this compound showed a α-Helix, SDS micelles of 16.6%. Besides, the α-Helix, DPC micelles in data set [8] came out at 14.1%. In data set [9], this compound displayed a α-Helix, aqueous solution of 8.9%. The compound also returned a Random, aqueous solution in data set [10] of 37.7%. For the same compound, the Random, SDS micelles in [11] came out at 31%.
The compound “H-RECKTESNTFPGICITKPPCRKACISEKFTDGHCSKIRRRCLCTKPC-OH (disulfide 3-47, 14-34, 20-41, 24-43)” returned a β-Turn, SDS micelles of 21.8%. Besides, the β-Sheet, aqueous solution in data set [1] turned out to be 34.3%. The β-Sheet, DPC micelles in data set [2] worked out at 31.1%. Besides, the β-Turn, aqueous solution in [3] stood at 21.2%. In data set [4], this compound registered a β-Sheet, SDS micelles of 32.8%. The β-Turn, DPC micelles in data set [5] amounted to 20.5%. In data set [6], this compound gave a Random, DPC micelles of 32.9%. In [7], this compound had a α-Helix, SDS micelles of 14.2%. The same compound came in with a α-Helix, DPC micelles in data set [8] of 15.5%. For the same compound, the α-Helix, aqueous solution in data set [9] came to 8.3%. The Random, aqueous solution in data set [10] amounted to 36.2%. The compound further showed a Random, SDS micelles in data set [11] of 31.2%.
The compound “H-RECKTESNTFPGICITKPPCRKACISEKFTDGHCSRIRRRCLCTKPC-OH (disulfide 3-47, 14-34, 20-41, 24-43)” gave a β-Turn, SDS micelles of 21.3%. The compound also gave a β-Sheet, aqueous solution in [1] of 36.8%. The β-Sheet, DPC micelles in data set [2] is 35.8%. Moreover, the β-Turn, aqueous solution in data set [3] worked out at 22%. This compound registered a β-Sheet, SDS micelles in data set [4] of 40.4%. The compound further gave a β-Turn, DPC micelles in data set [5] of 22%. This compound also yielded a Random, DPC micelles in data set [6] of 34.6%. In addition, the α-Helix, SDS micelles in [7] is 6.5%. Also, the α-Helix, DPC micelles in data set [8] is 7.6%. This compound also yielded a α-Helix, aqueous solution in data set [9] of 5.6%. This compound also gave a Random, aqueous solution in data set [10] of 35.6%. This compound came in with a Random, SDS micelles in [11] of 31.9%.
For the compound “RECKTESNTFPGICITKPPCRKACISEKFTDGHCRGFRRRCLCTKPC (disulfide 3-47, 14-34, 20-41, 24-43) [NaD1-L5]”, the β-Turn, SDS micelles was 23.4%. The “Hemolysis at 100 µM” value in data set [12] is reported as “no hemolysis”. The β-Sheet, aqueous solution in data set [1] stood at 22.9%. The β-Sheet, DPC micelles in data set [2] was determined as 24.1%. Moreover, the MIC in data set [13] was 6.25 µM. For the same compound, in data set [14], the MIC turned out to be 25 µM. In the data set with C. albicans ATCC 10231, this compound had an MIC of 6.25 µM. In addition, the IC50 with C. albicans ATCC 18804 (50 mM NaCl, 50% inhibition) was 25 to 50 µM. The compound further came in with an MIC with C. albicans ATCC 18804 (50 mM NaCl, 100% inhibition) of 50 µM. The same compound had an IC50 with C. albicans ATCC 18804 (150 mM NaCl, 50% inhibition) of more than 50 µM. Also, the MIC in the data set on C. albicans ATCC 18804 (150 mM NaCl, 100% inhibition) is more than 50 µM. In the data set on C. albicans ATCC 18804 (Table 2, 30 °C, 24 h, 100% inhibition of fungal growth, absorbance 630 nm, two-fold dilutions, twice in triplicate), this compound displayed an MIC of 6.25 µM. For the same compound, in the data set with C. albicans ATCC 18804 (Table 3, No Salts, 50% inhibition of fungal growth), the 50% inhibitory concentration (IC50) fell in the range of 3.13 to 6.25 µM. The minimum inhibitory concentration (MIC) in the data set on C. albicans ATCC 18804 (Table 3, No Salts, 100% inhibition of fungal growth) is 6.25 µM. In the data set on C. albicans ATCC 18804 ([…] CaCl2, 50% inhibition), the IC50 was 25 to 50 µM. The compound further yielded an MIC in the data set with C. albicans ATCC 18804 ([…] CaCl2, 100% inhibition) of 50 µM. The same compound showed an IC50 with C. albicans ATCC 18804 ([…] MgCl2, 50% inhibition) of 12.5 to 25 µM. Further, the MIC in the data set with C. albicans ATCC 18804 ([…] MgCl2, 100% inhibition) was 50 µM. The β-Turn, aqueous solution in [3] came out at 24.3%. Besides, the “СС50 Caco-2” value in the data set with Caco-2 cell monolayer is reported as more than 150 µM. In addition, in the data set on Caco-2 cell monolayer (in words, at a concentration of 150 µM), the “cytotoxic effects on Caco-2 cells” value is “practically no cytotoxic effects”. In data set [4], this compound showed a β-Sheet, SDS micelles of 23%. In data set [5], this compound came in with a β-Turn, DPC micelles of 22.3%. In addition, the Random, DPC micelles in [6] came out at 35.5%. The compound further displayed a α-Helix, SDS micelles in data set [7] of 17.8%. Further, in data set [8], the α-Helix, DPC micelles was 18.2%. In [9], this compound displayed a α-Helix, aqueous solution of 13.5%. This compound registered a Random, aqueous solution in [10] of 39.3%. In addition, in [11], the Random, SDS micelles is 35.9%.
